Assay results published in ChEMBL document CHEMBL3044602, “In vitro antiproliferative effect of -phenylethylamine derivatives and doxorubicin combinations on MCF/ADR cell lines” (Med Chem Res, 2013).

Experiments:
[1] = Cytotoxicity against Homo sapiens (human) MCF7/ADR cells assessed as inhibition of cell proliferation after 48 hr by SRB assay; type: cell-based, NCI/ADR-RES; conditions: for IC10: human
[2] = biological target: ATP-dependent translocase ABCB1 (Homo sapiens, UniProt P08183); assay: Inhibition of P-glycoprotein in Homo sapiens (human) MCF7/ADR cells assessed as doxorubicin-induced growth inhibition after 48 hr by SRB assay (Doxorubicin Rvb = 5.1 +/-1.2%); type: cell-based; conditions: nci/adr-res
Chain of ATP-dependent translocase ABCB1 (P08183 whole entry): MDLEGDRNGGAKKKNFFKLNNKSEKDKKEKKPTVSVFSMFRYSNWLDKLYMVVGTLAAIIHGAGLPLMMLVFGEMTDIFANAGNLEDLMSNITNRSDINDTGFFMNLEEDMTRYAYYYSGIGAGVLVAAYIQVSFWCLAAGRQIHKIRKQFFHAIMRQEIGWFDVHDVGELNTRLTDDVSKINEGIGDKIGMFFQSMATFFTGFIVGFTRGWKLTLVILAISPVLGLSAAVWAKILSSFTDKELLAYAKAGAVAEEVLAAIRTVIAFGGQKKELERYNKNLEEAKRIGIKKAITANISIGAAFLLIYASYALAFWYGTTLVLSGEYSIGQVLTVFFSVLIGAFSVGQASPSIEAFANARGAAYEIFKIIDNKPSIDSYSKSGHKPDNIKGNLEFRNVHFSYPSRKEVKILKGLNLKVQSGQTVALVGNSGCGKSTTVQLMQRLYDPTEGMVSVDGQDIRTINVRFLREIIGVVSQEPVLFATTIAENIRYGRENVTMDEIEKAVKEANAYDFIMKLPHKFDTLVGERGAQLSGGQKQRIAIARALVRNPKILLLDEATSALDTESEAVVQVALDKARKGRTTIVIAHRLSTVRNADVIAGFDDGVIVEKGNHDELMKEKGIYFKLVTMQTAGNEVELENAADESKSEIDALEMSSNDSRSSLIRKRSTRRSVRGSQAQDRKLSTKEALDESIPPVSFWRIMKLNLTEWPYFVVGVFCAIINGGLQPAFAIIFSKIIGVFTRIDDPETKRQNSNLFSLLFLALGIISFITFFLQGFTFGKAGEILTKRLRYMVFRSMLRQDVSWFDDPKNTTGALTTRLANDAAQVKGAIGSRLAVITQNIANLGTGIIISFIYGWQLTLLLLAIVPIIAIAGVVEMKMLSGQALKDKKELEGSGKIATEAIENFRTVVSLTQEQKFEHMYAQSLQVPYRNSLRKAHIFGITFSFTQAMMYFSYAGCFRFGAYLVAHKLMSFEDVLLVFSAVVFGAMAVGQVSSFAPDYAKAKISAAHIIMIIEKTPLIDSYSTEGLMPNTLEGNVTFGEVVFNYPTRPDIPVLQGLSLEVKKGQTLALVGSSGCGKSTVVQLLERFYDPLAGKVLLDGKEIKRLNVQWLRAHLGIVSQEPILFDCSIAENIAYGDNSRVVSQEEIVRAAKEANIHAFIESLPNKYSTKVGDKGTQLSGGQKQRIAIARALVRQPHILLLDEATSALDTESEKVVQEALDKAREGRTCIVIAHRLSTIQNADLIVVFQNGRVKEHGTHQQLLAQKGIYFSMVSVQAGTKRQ

MCF7 = assay: Cytotoxicity against Homo sapiens (human) MCF7 cells assessed as inhibition of cell proliferation after 48 hr by SRB assay; type: cell-based; conditions: mcf7, 48 h
[3] = Homo sapiens, NCI/ADR-RES, 48 h

Structure (SMILES) | IC50 [1, 3] | IC10 ([1]; nci/adr-res, 48 h) | growth inhibition (GI) [2] | Activity (MCF7) | IC50 ([1]; nci/adr-res)
COC(=O)/C(=C\c1ccc([N+](=O)[O-])cc1)CNCCc1ccc(OC)c(OC)c1 | 0.89 µM | 0.05 µM | – | – | –
COC(=O)C(CNCCc1ccc(OC)c(OC)c1)C(O)c1ccc([N+](=O)[O-])cc1 (centres undefined) | 85.1 µM | 15.7 µM | 12.9% | Non-toxic | –
COC(=O)/C(=C\c1ccccc1)CNCCc1ccc(OC)c(OC)c1 | 75.8 µM | 12.9 µM | 16.1% | Non-toxic | –
COC(=O)/C(=C\c1ccc(OC)c(OC)c1)CNCCc1ccc(OC)c(OC)c1 | 112 µM | 7.47 µM | 87.7% | Non-toxic | –
COC(=O)/C(=C\c1ccc2c(c1)OCO2)CNCCc1ccc(OC)c(OC)c1 | 248 µM | 13.8 µM | 43.3% | Non-toxic | –
COC(=O)C(CNCCc1ccc(OC)c(OC)c1)C(O)c1ccc(OC)c(OC)c1 (mixture of isomers) | – | – | 6.8% | Non-toxic | –
COC(=O)C(CNCCc1ccc(OC)c(OC)c1)C(O)c1ccccc1 (mixture of isomers) | 238 µM | 14 µM | 11.8% | Non-toxic | –
COC(=O)C(CNCCc1ccc(OC)c(OC)c1)C(O)c1ccc2c(c1)OCO2 (mixture of isomers) | 238 µM | 20.7 µM | 10.4% | Non-toxic | –
COC(=O)C(CNCCc1ccc(OC)c(OC)c1)Cc1ccccc1 (racemic) | 193 µM | 15.2 µM | 3.2% | Non-toxic | –
COC(=O)C(CNCCc1ccc(OC)c(OC)c1)Cc1ccc(OC)c(OC)c1 (racemic) | 28.9 µM | 2.39 µM | 6.9% | Non-toxic | –
COC(=O)C(CNCCc1ccc(OC)c(OC)c1)Cc1ccc2c(c1)OCO2 (racemic) | 188 µM | 10.5 µM | 5.8% | Non-toxic | –
COC(=O)C(CNCCc1ccc(OC)c(OC)c1)C(O)c1ccc(OC)c(OC)c1 (single isomer, unassigned; form 1) | 371 µM | 38.2 µM | – | – | –
COC(=O)C(CNCCc1ccc(OC)c(OC)c1)C(O)c1ccc(OC)c(OC)c1 (single isomer, unassigned; form 2) | – | 30.1 µM | – | – | 298 µM
